Measured values from patent publication US20100041694A1, “AGRICULTURAL COMPOSITION FOR CONTROLLING OR PREVENTING PLANT DISEASES CAUSED BY PLANT PATHOGENIC MICROBES” (Sumitomo Chemical Company, Limited, priority 2007, published 2010).

How the values were obtained:
Plasmopara viticola = experiment: Treating grape downy mildew, foliage application; assay type: in vivo; conditions: grape (Berry-A), infected nursery plants, flowable formulation 500 ppm foliage application after inoculation (curative)
Experimental: Test Regarding Effects of Treating Grape Downy Mildew (Plasmopara viticola)
A plastic pot was filled with sandy soil, and grape (variety: Berry-A) was then disseminated. The grape plants were allowed to grow in a green house for 40 days. A water suspension of zoosporangium of Plasmopara viticola was inoculated to the aforementioned pot by spaying it. Thereafter, the grape plants were left at 23° C. at a high humidity for 1 day, and they were then air-dried, so as to obtain grape downy mildew-infected nursery plants. The aforementioned flowable formulation comprising compound 189 was set at a predetermine concentration (500 ppm) by diluting with water, and it was then subjected to foliage application such that it could be sufficiently attached to the leaves of the aforementioned nursery grape plants. After completion of the foliage application, the plants were subjected to air-drying, and they were then left at 23° C. in a green house for 5 days. Thereafter, the plants were further left at 23° C. at a high humidity for 1 day. Thereafter, the infected areas thereof were examined.

Magnaporthe grisea = assay type: in vivo; conditions: rice (Nihonbare), flowable formulation 500 ppm foliage application; five days after the inoculation

| Structure (SMILES) | infected areas of treated plants relative to infected areas of untreated plants (Plasmopara viticola) [%] | infected areas of treated plants relative to infected areas of untreated plants (Magnaporthe grisea) [%] |
| --- | --- | --- |
| Cc1ccc(CNC(=O)c2ccc3ncsc3c2)cc1 [Compound 189] | ≤ 10 |  |
| O=C(NCc1ccc(OC(F)F)cc1)c1ccc2ncccc2c1 [Compound 56] |  | ≤ 30 |
